The values that follow come from patent US20040102633A1, “Novel compounds” (priority 2000, published 2004).

As a reminder, the melting point is the temperature of the solid-liquid transition.

Structures are written as SMILES. Counter-ions that a name gives are not always drawn.

Turning to `C[C@H](NC(=O)c1c(CN2CCC(N3CCCCC3)CC2)c(-c2ccccc2)nc2ccc(F)cc12)C1CCCCC1` [Example 28, 3-[1,4′]Bipiperidinyl-1′-ylmethyl-6-fluoro-2-phenyl-quinoline-4-carboxylic Acid ((S)-1-cyclohexyl-ethyl)-amide], the melting point is 174 to 175 °C.

`COc1ccc2c(C(=O)N[C@H](c3ccccc3)C(C)C)c(CN3CCC(N4CCCCC4)CC3)c(-c3ccccc3)nc2c1` [Example 22, 3-[1,4′]Bipiperidinyl-1′-ylmethyl-7-methoxy-2-phenyl-quinoline-4-carboxylic Acid ((S)-2-methyl-1-phenyl-propyl)-amide] had a melting point of 113 to 116 °C.

`C[C@H](NC(=O)c1c(CN2CCC(N)CC2)c(-c2ccccc2)nc2ccccc12)C1CCCCC1` [Example 6, 3-(4-Amino-piperidin-1-ylmethyl)-2-phenyl-quinoline-4-carboxylic Acid ((S)-1-cyclohexyl-ethyl)-amide] registered a melting point of 140 to 145 °C.

With `CC(C)[C@H](NC(=O)c1c(CN2CCC(N3CCCCC3)CC2)c(-c2ccccc2)nc2cc(O)ccc12)c1ccccc1` [Example 21, 3-[1,4′]Bipiperidinyl-1′-ylmethyl-7-hydroxy-2-phenyl-quinoline-4-carboxylic Acid ((S)-2-methyl-1-phenyl-propyl)-amide], the melting point is 200 to 204 °C (dec.).

Compound `C[C@H](NC(=O)c1c(CN2CCC(N3CCCCC3)CC2)c(-c2ccc(C(F)(F)F)cc2)nc2ccccc12)C1CCCCC1` [Example 30, 3-[1,4′]Bipiperidinyl-1′-ylmethyl-2-(4-trifluoromethyl-phenyl) -quinoline-4-carboxylic Acid ((S)-1-cyclohexyl-ethyl)-amide] came in with a melting point of 138 to 140 °C.

For the compound `CC[C@H](NC(=O)c1c(CN2CCC(N3CCCCC3)CC2)c(-c2ccccc2)nc2cc(OCC(N)=O)ccc12)c1ccccc1` (as salt: hydrochloride) [Example 20, 3-[1,4′]Bipiperidinyl-1′-ylmethyl-7-carbamoylmethoxy-2-phenyl-quinoline-4-carboxylic Acid ((S)-1-phenyl-propyl)-amide Dihydrochloride], the melting point fell in the range of 218 to 220 °C.

Regarding `C[C@H](NC(=O)c1c(CN2CCC(N3CCCC3=O)CC2)c(-c2ccccc2)nc2ccccc12)c1ccccc1` [Example 12, 3-[4-(2-Oxo-pyrrolidin-1-yl)-piperidin-1-ylmethyl]-2-phenyl-quinoline-4-carboxylic Acid ((S)-1-phenyl-ethyl)-amide], the melting point was in the range of 120 to 125 °C.

Take `C[C@H](NC(=O)c1c(CN2CCC(N3CCCCC3)CC2)c(-c2ccccc2)nc2cc(Cl)ccc12)C1CCCCC1` [Example 24, 3-[1,4′]Bipiperidinyl-1′-ylmethyl-7-chloro-2-phenyl-quinoline-4-carboxylic acid ((S)-1-cyclohexyl-ethyl)-amide]: the melting point fell in the range of 152 to 154 °C.

As to `CC[C@H](NC(=O)c1c(CN2CCC(N3CCCCC3)CC2)c(-c2ccccc2)nc2cc(OCC(=O)O)ccc12)c1ccccc1` (as salt: hydrochloride) [Example 17, [3-[1,4′]Bipiperidinyl-1′-ylmethyl-2-phenyl-4((S)-1-phenyl-propylcarbamoyl)-quinolin-7-yloxy]-acetic Acid Dihydrochloride], the melting point is 196 °C (dec.).

With `C[C@H](NC(=O)c1c(CN2CCC(N3CCCCC3)CC2)c(-c2ccc(F)cc2)nc2ccccc12)C1CCCCC1` [Example 29, 3-[1,4′]Bipiperidinyl-1′-ylmethyl-2-(4-fluoro-phenyl)-quinoline-4-carboxylic Acid ((S)-1-cyclohexyl-ethyl)-amide], the melting point was in the range of 151 to 153 °C.

`CCOC(=O)C1CCCN(C2CCN(Cc3c(-c4ccccc4)nc4ccccc4c3C(=O)N[C@@H](C)C3CCCCC3)CC2)C1` (stereo partly drawn) [Example 13, 1′-[4-((S)-1-Cyclohexyl-ethylcarbamoyl)-2-phenyl-quinolin-3-ylmethyl]-[1,4′]bipiperidinyl-3-carboxylic Acid Ethyl Ester] registered a melting point of 104 to 105 °C.

`C[C@H](NC(=O)c1c(CN2CCC(N)CC2)c(-c2ccccc2)nc2ccccc12)c1ccccc1` [Example 7, 3-(4-Amino-piperidin-1-ylmethyl)-2-phenyl-quinoline-4-carboxylic Acid ((S)-1-phenyl-ethyl)-amide] came in with a melting point of 118 to 119 °C.

`CC[C@H](NC(=O)c1c(CN2CCC(N3CCCCC3)CC2)c(-c2ccccc2)nc2cc(OCCO)ccc12)c1ccccc1` [Example 19, 3-[1,4′]Bipiperidinyl-1′-ylmethyl-7-(2-hydroxy-ethoxy)-2-phenyl-quinoline-4-carboxylic acid ((S)-1-phenyl-propyl)-amide] came in with a melting point of 118 to 122 °C.

Turning to `C[C@H](NC(=O)c1c(CN2CCC(N3CCCCC3)CC2)c(-c2ccccc2)nc2cc(F)ccc12)C1CCCCC1` [Example 25, 3-[1,4′]Bipiperidinyl-1′-ylmethyl-7-fluoro-2-phenyl-quinoline-4-carboxylic Acid ((S)-1-cyclohexyl-ethyl)-amide], the melting point was in the range of 161 to 163 °C.

`C[C@H](NC(=O)c1c(CN2CCC(N3CCCCC3)CC2)c(-c2ccccc2)nc2c(F)cccc12)C1CCCCC1` [Example 26, 3-[1,4′]Bipiperidinyl-1′-ylmethyl-8-fluoro-2-phenyl-quinoline-4-carboxylic Acid ((S)-1-cyclohexyl-ethyl)-amide] came in with a melting point of 113 °C.

In turn, `C[C@H](NC(=O)c1c(CN2CCC(N3CCCCC3)CC2)c(-c2ccccc2)nc2cc(O)ccc12)C1CCCCC1` [Example 15, 3-[1,4′]Bipiperidinyl-1′-ylmethyl-7-hydroxy-2-phenyl-quinoline-4-carboxylic Acid ((S)-1-cyclohexyl-ethyl)-amide] registered a melting point of 177.9 to 178 °C.

Compound `C[C@H](NC(=O)c1c(CN2CCC(N3CCCCC3)CC2)c(-c2cccs2)nc2ccccc12)C1CCCCC1` [Example 27, 3-[1,4′]Bipiperidinyl-1-ylmethyl-2-thiophen-2-yl-quinoline-4-carboxylic Acid ((S)-1-cyclohexyl-ethyl)-amide] registered a melting point of 165 to 166 °C.

Compound `C[C@H](NC(=O)c1c(CN2CCC(N3CCCCC3=O)CC2)c(-c2ccccc2)nc2ccccc12)c1ccccc1` [Example 11, 3-(2-Oxo-[1,4′]bipiperidinyl-1′-ylmethyl)-2-phenyl-quinoline-4-carboxylic Acid ((S)-1-phenyl-ethyl)-amide] returned a melting point of 124 to 125 °C.

For the compound `C[C@H](NC(=O)c1c(CN2CCC(N3CCCCC3)CC2)c(-c2ccccc2)nc2cc(O)ccc12)c1ccccc1` [Example 18, 3-[1,4′]Bipiperidinyl-1′-ylmethyl-7-hydroxy-2-phenyl-quin line-4-carboxylic Acid ((S)-1-phenyl-ethyl)-amide], the melting point lay in the range of 99.6 to 99.7 °C.

For the compound `CCOC(=O)COc1ccc2c(C(=O)N[C@@H](CC)c3ccccc3)c(CN3CCC(N4CCCCC4)CC3)c(-c3ccccc3)nc2c1` [Example 16, [3-[1,4′]Bipiperidinyl-1′-ylmethyl-2-phenyl-4-((S)-1-phenyl-propylcarbamoyl)-quinolin-7-yloxy]-acetic Acid Ethyl Ester], the melting point lay in the range of 101 to 104 °C.

`C[C@H](NC(=O)c1c(CN2CCC(N3CCCC(C(=O)O)C3)CC2)c(-c2ccccc2)nc2ccccc12)C1CCCCC1` (stereo partly drawn) [Example 14, 1′-[4-((S)-1-Cyclohexyl-ethylcarbamoyl)-2-phenyl-quinolin-3-ylmethyl]-[1,4′]bipiperidinyl-3-carboxylic Acid] yielded a melting point of 160 to 165 °C.
